Test systems include BT-549; Hs-578T; DLD-1; DMS-114; HOP-18; LXFL 529; SNB-78; T47D; RXF 631.
Assay in all cases: NCI-60 cell line screen, 48 h

Structures are written as SMILES.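 How tested: cells in 96-well plates exposed to compound for 48 hours at five concentrations. GI50: concentration for 50% inhibition of growth.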 Calls of active or inactive are those of the source. Rule as the data show it: active = GI50 up to about 1.1 µM and inactive = higher. Where only a bound is given, the exact number is not on record here.

For the compound `Cc1ccc(C=C(C(=O)O)C(=O)O)o1`, the GI50 in the experiment on BT-549 and in the experiment with Hs-578T was > 100 µM (inactive) each time.
As for `COc1ccc(C[C@H](N)C(=O)N2C[C@@H](CO)C[C@@H](n3cnc4c(N(C)C)ncnc43)C2)cc1`, the GI50 in the experiment on DLD-1, in the experiment with DMS-114, in the experiment with HOP-18, with LXFL 529 and in the experiment on SNB-78 was > 100 µM (inactive) each time.
As for `COc1ccc2c(c1)c1c(n2CCN2CCCCC2)-c2cccc(OC)c2CC1`, the GI50 with BT-549 is 13.9 µM (inactive); in the experiment with Hs-578T, 19.5 µM (inactive); in the experiment on T47D it was 16.3 µM (inactive).
In the case of `CC(=O)NC(CCCCNC(=O)OC(C)(C)C)C(=O)O` (stereo not given), in the experiment with T47D, the GI50 was > 100 µM (inactive).
Turning to `C=C1C(=O)O[C@@H]2/C=C(\C)CC/C=C(\C)CC[C@@]12O`, the GI50 in the experiment on BT-549 is 1.99 µM (inactive); with Hs-578T, 8.79 µM (inactive); in the experiment on T47D, 1.41 µM (inactive).
`Oc1nc2c(c(-c3ccccc3Cl)n1)COC/C2=C\c1ccccc1Cl`: the GI50 with BT-549, in the experiment with Hs-578T and in the experiment with T47D was > 100 µM (inactive) throughout.
Turning to `C[N+](C)(CCO)CCN1c2ccccc2Sc2ccccc21`, the GI50 with Hs-578T and with T47D was > 10 µM (inactive) each time.
`Nc1nc(=O)[nH]cc1F` [FLUCYTOSINE]: the GI50 with BT-549, with Hs-578T and in the experiment on T47D was > 100 µM (inactive) each time.
With `O=C1OC2CC=CC1C2` (stereo not given), the GI50 in the experiment on DLD-1, in the experiment with DMS-114, in the experiment with HOP-18 and with SNB-78 was > 100 µM (inactive) in each case.
Take `CN(C)C(=O)/N=C1\SC(=N\c2ccccc2)/C(=N/c2ccccc2)N1c1ccc([N+](=O)[O-])cc1`: the GI50 with BT-549 was > 100 µM (inactive); in the experiment on Hs-578T it was 51.6 µM (inactive); in the experiment on T47D, > 100 µM (inactive).
`Nc1ncnc2c1nnn2C1OC(CO)C(O)C1O` (stereo not given): the GI50 is 1.36 µM (inactive) in the experiment with DLD-1, 3.64 µM (inactive) in the experiment with DMS-114, 2.69 µM (inactive) in the experiment on HOP-18 and 37.6 µM (inactive) in the experiment on SNB-78.
For `CCNC(=O)C(C)C1CCC2(C)C=CC(=O)C(C)=C2C1O` (stereo not given), in that order: > 100 µM (inactive), > 100 µM (inactive), > 100 µM (inactive) and > 100 µM (inactive).
For the compound `CSC1=C(SC)C(=O)c2cn(C)c(=O)cc2C1=O`, the GI50 with BT-549 is 2.14 µM (inactive); in the experiment with Hs-578T it was 7.67 µM (inactive); in the experiment on T47D it was 2.05 µM (inactive).
As to `CC1=CC(O)C(O)C2(C)C1CC1OC(=O)C(O)C3C(C)C(O)C4(O)OCC13C42` (stereo not given), the GI50 with DLD-1 is 135 µM (inactive); with DMS-114, 35.4 µM (inactive); in the experiment on HOP-18, 155 µM (inactive); in the experiment on SNB-78, 39.4 µM (inactive).
For the compound `CC(C)(C)[Si](C)(C)OCCCC#CCO`, the GI50 with DLD-1 is > 100 µM (inactive); in the experiment with DMS-114, > 100 µM (inactive); in the experiment with HOP-18 it was < 0.01 µM (active); in the experiment with LXFL 529, > 100 µM (inactive); in the experiment on RXF 631, > 100 µM (inactive); with SNB-78, > 100 µM (inactive).
Take `CSCCC(NOC(=O)Cc1ccccc1)P(=O)(O)c1ccccc1` (stereo not given): the GI50 in the experiment on Hs-578T and with T47D was > 100 µM (inactive) throughout.
In the case of `Cc1cn(C2CC(O)C(Cn3cc(Cn4nc(Br)c(=O)[nH]c4=O)nn3)O2)c(=O)[nH]c1=O` (stereo not given), the GI50 in the experiment on BT-549, in the experiment with Hs-578T and in the experiment on T47D was > 100 µM (inactive) each time.
Consider `Clc1ccc(C2SCc3nc4ccccc4n32)cc1` (stereo not given), for which the GI50 was 5.57 µM (inactive) with DMS-114; 23.3 µM (inactive) in the experiment on HOP-18; 18.7 µM (inactive) in the experiment with LXFL 529; 29.2 µM (inactive) in the experiment with RXF 631; 29.9 µM (inactive) in the experiment on SNB-78.
As to `COc1ccc(NC(=S)NNC(=O)c2nsc3ccccc23)cc1`, the GI50 in the experiment on DMS-114 is 32.1 µM (inactive); in the experiment with LXFL 529, 39.4 µM (inactive); in the experiment on SNB-78 it was 41.7 µM (inactive).
With `O=C(O)c1cccc(OCCO)c1`, the GI50 in the experiment with BT-549, in the experiment on Hs-578T and with T47D was > 100 µM (inactive) each time.
Turning to `C1CNCCNCCNCCN1`, the GI50 with DLD-1 was 41.3 µM (inactive); in the experiment on DMS-114, > 100 µM (inactive); in the experiment with HOP-18, > 100 µM (inactive); in the experiment with LXFL 529, > 100 µM (inactive); in the experiment on SNB-78, > 100 µM (inactive).
Consider `CC(C)[C@](O)(C(=O)OCC1CC[N+]2([O-])CC[C@@H](O)C12)[C@H](C)O` (stereo not given in full), for which the GI50 in the experiment on DLD-1 was > 375 µM (inactive); in the experiment with DMS-114, > 375 µM (inactive); with HOP-18 it was 105 µM (inactive); in the experiment on SNB-78 it was > 375 µM (inactive).
With `COc1cc2c(oc(=O)c3cc4cc([Si](C)(C)C)oc4c(OC)c32)c2cccc(O)c12`, the GI50 in the experiment with DLD-1, in the experiment with DMS-114, in the experiment with HOP-18, in the experiment on LXFL 529 and with SNB-78 was > 100 µM (inactive) each time.

Values taken from ChEMBL document CHEMBL1201862, “PubChem BioAssay data set” (2004).
